Molecules are shown by their SMILES.

Among the data in patent publication US9862716B2, “TRKA kinase inhibitors, compositions and methods thereof” (Merck Sharp & Dohme Corp., priority 2014, dated 2018) are IC50 values, retold here.

The target in the assay is T1, human TrkA receptor (Homo sapiens, UniProt P04629).
T1 construct: host or cells: U2OS cells (PathHunter cell line)
T1 sequence (P04629 33-796): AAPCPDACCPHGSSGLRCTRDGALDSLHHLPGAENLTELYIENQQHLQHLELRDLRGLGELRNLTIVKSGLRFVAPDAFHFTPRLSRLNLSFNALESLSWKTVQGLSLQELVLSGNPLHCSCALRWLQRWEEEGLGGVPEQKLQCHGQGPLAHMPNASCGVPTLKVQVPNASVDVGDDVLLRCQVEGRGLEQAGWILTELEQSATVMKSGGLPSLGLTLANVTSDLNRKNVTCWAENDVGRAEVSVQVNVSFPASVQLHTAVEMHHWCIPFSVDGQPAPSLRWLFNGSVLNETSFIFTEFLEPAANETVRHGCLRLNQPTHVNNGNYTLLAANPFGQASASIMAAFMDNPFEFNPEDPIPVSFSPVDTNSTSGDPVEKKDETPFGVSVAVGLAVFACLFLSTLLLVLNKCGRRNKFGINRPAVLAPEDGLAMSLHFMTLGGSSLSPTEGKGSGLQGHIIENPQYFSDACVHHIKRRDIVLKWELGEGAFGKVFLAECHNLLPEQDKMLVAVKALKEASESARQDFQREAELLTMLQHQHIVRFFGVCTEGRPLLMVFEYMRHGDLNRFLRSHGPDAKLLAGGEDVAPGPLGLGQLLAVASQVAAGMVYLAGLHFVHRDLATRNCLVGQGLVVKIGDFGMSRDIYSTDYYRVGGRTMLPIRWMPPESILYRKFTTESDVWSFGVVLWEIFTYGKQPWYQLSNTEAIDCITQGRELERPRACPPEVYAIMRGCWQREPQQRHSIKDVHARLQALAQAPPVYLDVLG
As to the kind of experiment: DiscoverX PathHunter TrkA functional assay (NGF-stimulated U2OS cells). The format is cell-based. The settings on record: U2OS cells expressing human TrkA-PK, Shc1-EA and p75NTR; compound 1 h, then NGF at ~80% of maximal response for 3 h; luminescence.
Experimental: TrkA functional activity was measured using a DiscoverX PathHunter assay. In this assay, U2OS cells express the human TrkA receptor as a fusion with the weakly complementing fragment of B-galactosidase, which DiscoverX calls “Prolink (PK)”; additionally, Shc1 is fused with a larger fragment, which is called “Enzyme Acceptor (EA)”. Activation of the TrkA receptor, upon NGF addition, results in the kinase domain being phosphorylated, resulting in subsequent recruitment of Shc1-EA protein. That recruitment results in an active B-galactosidase enzyme that is detected by addition of a chemiluminescent substrate. The human p75^NTR protein was also expressed as a co-receptor for NGF.
All reagents were purchased from DiscoverX, except for the receptor agonists (NGF, BDNF, NT3) which were purchased from Peprotech. Cells were expanded and frozen into cryovials, and stored in the vapor phase of liquid nitrogen, and thawed immediately before use. Thawed cells were added to a 384-well plate at 7500 cells/well, and allowed to incubate overnight. Compound at various concentrations was added the following morning and allowed to incubate on cells for 1 h. Then, NGF was added at a concentration sufficient to elicit ˜80% of a maximal response and allowed to incubate for 3 h at ambient temperature. DiscoverX PathHunter detection reagent was then added and the plate was further incubated for 1 h in the dark. The plate was then read via luminescence on the Perkin Elmer Envision.
Usually IC50 stands for the concentration that inhibits the measured activity by half. Read a high IC50 as lower potency. In turn, `Cn1ccc(-c2cc(C(=O)Nc3c(-c4ccccc4)nc4scnn34)ccc2C(F)(F)F)n1` [Compound 17, 3-(1-methyl-1H-pyrazol-3-yl)-N-(6-phenylimidazo[2,1-b][1,3,4]thiadiazol-5-yl)-4-(trifluoromethyl) benzamide] came in with an IC50 of 9.2 nM.
Then `NC(=O)c1ccc2[nH]c(-c3ccccc3)c(NC(=O)c3cc(-c4ncccn4)c(C(F)(F)F)cc3F)c2c1` [Compound 92, 3-({[2-fluoro-5-pyrimidin-2-yl-4-(trifluoromethyl)phenyl]carbonyl}amino)-2-phenyl-1H-indole-5-carboxamide], with 8.7 nM; and `CC(O)c1ccn2nc(-c3ccccc3)c(NC(=O)c3ccc(C(F)(F)F)c(-c4ccn(C)n4)c3)c2c1` (single isomer, unassigned) [Compound 97, (R or S)-N-[5-(1-hydroxyethyl)-2-phenylpyrazolo[1,5-a]pyridin-3-yl]-3-(1-methyl-1H-pyrazol-3-yl)-4-(trifluoromethyl) benzamide], with 1.9 nM.
Regarding `Cn1ccc(-c2cc(C(=O)Nc3c(-c4ccccc4)nc4ccc(C(O)C(F)(F)F)cn34)ccc2C(F)(F)F)n1` (single isomer, unassigned) [Compound 66, (R or S)-3-(1-methyl-1H-pyrazol-3-yl)-N-[2-phenyl-6-(2,2,2-trifluoro-1-hydroxyethyl)imidazo[1,2-a]pyridin-3-yl]-4-(trifluoromethyl) benzamide], the half-maximal inhibitory concentration (IC50) came to 4.5 nM.
Then `Cn1ccc(-c2cc(C(=O)Nc3c(-c4ccccc4)nc4cc(CCN)ccn34)ccc2C(F)(F)F)n1` [Compound 100, N-[7-(2-aminoethyl)-2-phenylimidazo[1,2-a]pyridin-3-yl]-3-(1-methyl-1H-pyrazol-3-yl)-4-(trifluoromethyl) benzamide], with 13 nM.
Then `Cn1ccc(-c2cc(C(=O)Nc3c(-c4ccccc4)nc4cc(N5CCCC5)ccn34)ccc2C(F)(F)F)n1` [Compound 89, 3-(1-methyl-1H-pyrazol-3-yl)-N-(2-phenyl-7-pyrrolidin-1-ylimidazo[1,2-a]pyridin-3-yl)-4-(trifluoromethyl) benzamide], with 5 nM; and `Cc1cc(C(F)(F)F)c(-c2ccn(C)n2)cc1C(=O)Nc1c(-c2ccccc2)nc2cc([C@@H](C)O)ccn12` [Compound 93, N-{7-[(1R)-1-hydroxyethyl]-2-phenylimidazo[1,2-a]pyridin-3-yl}-2-methyl-5-(1-methyl-1H-pyrazol-3-yl)-4-(trifluoromethyl) benzamide], with 4.7 nM; and `CC(O)c1ccn2c(NC(=O)c3cc(-c4ncccn4)c(C(F)(F)F)cc3F)c(-c3ccccc3)nc2c1` (single isomer, unassigned) [Compound 57, (R or S)-2-fluoro-N-[7-(1-hydroxyethyl)-2-phenylimidazo[1,2-a]pyridin-3-yl]-5-pyrimidin-2-yl-4-(trifluoromethyl) benzamide], with 1.1 nM.
With `Cn1ccc(-c2cc(C(=O)Nc3c(-c4ccncn4)nc4ccccn34)ccc2C(F)(F)F)n1` [Compound 8, 3-(1-methyl-1H-pyrazol-3-yl)-N-(2-pyrimidin-4-ylimidazo[1,2-a]pyridin-3-yl)-4-(trifluoromethyl) benzamide] the figure was 568 nM; with `Cn1ccc(-c2cc(C(=O)Nc3c(-c4ccccc4)nc4cc(CCO)ccn34)ccc2C(F)(F)F)n1` [Compound 99, N-[7-(2-hydroxyethyl)-2-phenylimidazo[1,2-a]pyridin-3-yl]-3-(1-methyl-1H-pyrazol-3-yl)-4-(trifluoromethyl) benzamide], 2.1 nM.
Take `Cn1ccc(-c2cc(C(=O)Nc3c(-c4ccccc4)nc4c(F)cccn34)ccc2C(F)(F)F)n1` [Compound 22, N-(8-fluoro-2-phenylimidazo[1,2-a]pyridin-3-yl)-3-(1-methyl-1H-pyrazol-3-yl)-4-(trifluoromethyl) benzamide]: the IC50 came to 1.9 nM.
Then `Cc1ccnc(-c2cc(C(=O)Nc3c(-c4ccccc4)nc4cc(C(C)(C)O)ccn34)c(Cl)cc2C(F)(F)F)n1` [Compound 71, 2-chloro-N-[7-(1-hydroxy-1-methylethyl)-2-phenylimidazo[1,2-a]pyridin-3-yl]-5-(4-methylpyrimidin-2-yl)-4-(trifluoromethyl) benzamide], with 7.6 nM; and `CC(C)c1cccc2nc(-c3ccccc3)c(NC(=O)c3ccc(C(F)(F)F)cc3F)n12` [Compound 7, 2-fluoro-N-[5-(1-methylethyl)-2-phenylimidazo[1,2-a]pyridin-3-yl]-4-(trifluoromethyl) benzamide], with 264 nM; and `Cn1ccc(-c2cc(C(=O)Nc3c(-c4ccccc4)nc4ccc(C(C)(C)O)cn34)ccc2C(F)(F)F)n1` [Compound 36, N-[6-(1-hydroxy-1-methylethyl)-2-phenylimidazo[1,2-a]pyridin-3-yl]-3-(1-methyl-1H-pyrazol-3-yl)-4-(trifluoromethyl) benzamide], with 0.34 nM.
Then `Cn1ccc(-c2cc(C(=O)Nc3c(-c4ccccc4)nc4ccc(CN5CC(F)C5)cn34)ccc2C(F)(F)F)n1` [Compound 47, N-{6-[(3-fluoroazetidin-1-yl)methyl]-2-phenylimidazo[1,2-a]pyridin-3-yl}-3-(1-methyl-1H-pyrazol-3-yl)-4-(trifluoromethyl) benzamide], with 8.8 nM; and `Cn1ccc(-c2cc(C(=O)Nc3c(-c4ccccc4)nc4ccccn34)ccc2C(F)(F)F)n1` [Compound 4, 3-(1-methyl-1H-pyrazol-3-yl)-N-(2-phenylimidazo[1,2-a]pyridin-3-yl)-4-(trifluoromethyl) benzamide], with 1.4 nM; and `Cc1coc(-c2cc(C(=O)Nc3c(-c4ccccc4)nc4ccccn34)ccc2C(F)(F)F)n1` [Compound 14, 3-(4-methyl-1,3-oxazol-2-yl)-N-(2-phenylimidazo[1,2-a]pyridin-3-yl)-4-(trifluoromethyl) benzamide], with 3.3 nM.
In the case of `Cn1ccc(-c2cc(C(=O)Nc3c(-c4ccccc4)nc4cc(C(O)CO)ccn34)ccc2C(F)(F)F)n1` (single isomer, unassigned) [Compound 49, (R or S)-N-[7-(1,2-dihydroxyethyl)-2-phenylimidazo[1,2-a]pyridin-3-yl]-3-(1-methyl-1H-pyrazol-3-yl)-4-(trifluoromethyl) benzamide], inhibition was half-maximal at 0.51 nM (IC50).
In the case of `Cn1ccc(-c2cc(C(=O)Nc3c(-c4ccccc4)nc4cc(CCNS(C)(=O)=O)ccn34)ccc2C(F)(F)F)n1` [Compound 102, 3-(1-methyl-1H-pyrazol-3-yl)-N-(7-{2-[(methylsulfonyl)amino]ethyl}-2-phenylimidazo[1,2-a]pyridin-3-yl)-4-(trifluoromethyl) benzamide], half-maximal inhibition (IC50) required 4.3 nM.
With `Cn1ccc(-c2cc(C(=O)Nc3nc4ccccc4nc3-c3ccccc3)ccc2C(F)(F)F)n1` [Compound 31, 3-(1-methyl-1H-pyrazol-3-yl)-N-(3-phenylquinoxalin-2-yl)-4-(trifluoromethyl) benzamide] the figure was 27 nM.
With `Cn1ccc(-c2cc(C(=O)Nc3c(-c4ccccc4)nn4ccc(C(C)(C)O)cc34)c(F)cc2C(F)(F)F)n1` [Compound 103, 2-fluoro-N-[5-(1-hydroxy-1-methylethyl)-2-phenylpyrazolo[1,5-a]pyridin-3-yl]-5-(1-methyl-1H-pyrazol-3-yl)-4-(trifluoromethyl) benzamide] the figure was 0.94 nM; with `COc1ccn2c(NC(=O)c3cc(-c4ncccn4)c(C(F)(F)F)cc3F)c(-c3ccccc3)nc2c1` [Compound 59, 2-fluoro-N-(7-methoxy-2-phenylimidazo[1,2-a]pyridin-3-yl)-5-pyrimidin-2-yl-4-(trifluoromethyl) benzamide], 1.7 nM.
Then `Cn1ccc(-c2cc(C(=O)Nc3c(-c4ccccc4)nc4cc(C(C)(C)O)ccn34)ccc2C(F)(F)F)n1` [Compound 27, N-[7-(1-hydroxy-1-methylethyl)-2-phenylimidazo[1,2-a]pyridin-3-yl]-3-(1-methyl-1H-pyrazol-3-yl)-4-(trifluoromethyl) benzamide], with 1.8 nM.
As to `C[C@H](O)c1ccn2c(NC(=O)c3ccc(C(F)(F)F)c(-c4ccn(C)n4)c3)c(-c3ccccc3)nc2c1` [Compound 41, N-{7-[(1S)-1-hydroxyethyl]-2-phenylimidazo[1,2-a]pyridin-3-yl}-3-(1-methyl-1H-pyrazol-3-yl)-4-(trifluoromethyl) benzamide], the IC50 was determined as 0.96 nM.
With `O=C(Nc1c(-c2ccccc2)nc2ccccn12)c1ccc(OC(F)(F)F)cc1` [Compound 1, N-(2-phenylimidazo[1,2-a]pyridin-3-yl)-4-(trifluoromethoxy) benzamide], inhibition was half-maximal at 550 nM (IC50).
Then `Cn1ccc(-c2cc(C(=O)Nc3c(-c4ccccc4)nc4ncccn34)c(Cl)cc2C(F)(F)F)n1` [Compound 24, 2-chloro-5-(1-methyl-1H-pyrazol-3-yl)-N-(2-phenylimidazo[1,2-a]pyrimidin-3-yl)-4-(trifluoromethyl) benzamide], with 2.8 nM; and `CC(O)c1ccn2c(NC(=O)c3cc(-c4ncccn4)c(C(F)(F)F)cc3F)c(-c3ccccc3)nc2c1` (single isomer, unassigned) [Compound 58, (R or S)-2-fluoro-N-[7-(1-hydroxyethyl)-2-phenylimidazo[1,2-a]pyridin-3-yl]-5-pyrimidin-2-yl-4-(trifluoromethyl) benzamide], with 0.92 nM.
Then `Cn1ccc(-c2cc(C(=O)Nc3c(-c4ccccc4)nc4ncccn34)ccc2C(F)(F)F)n1` [Compound 3, 3-(1-methyl-1H-pyrazol-3-yl)-N-(2-phenylimidazo[1,2-a]pyrimidin-3-yl)-4-(trifluoromethyl) benzamide], with 5.9 nM.
The molecule `CC(C)(O)c1ccc2nc(-c3ccccc3)c(NC(=O)c3ccc(C(F)(F)F)c(-c4ncccn4)c3)n2c1` [Compound 44, N-[6-(1-hydroxy-1-methylethyl)-2-phenylimidazo[1,2-a]pyridin-3-yl]-3-pyrimidin-2-yl-4-(trifluoromethyl) benzamide] returned an IC50 of 1.4 nM.
Then `O=C(O)c1ccc2[nH]c(-c3ccccc3)c(NC(=O)c3cc(-c4ncccn4)c(C(F)(F)F)cc3F)c2c1` [Compound 91, 3-({[2-fluoro-5-pyrimidin-2-yl-4-(trifluoromethyl)phenyl]carbonyl}amino)-2-phenyl-1H-indole-5-carboxylic acid], with 11 nM.
